Results on 17 molecules are retold here after paper PMC5295395, “Inhibition of PlexA1-mediated brain tumor growth and tumor-associated angiogenesis using a transmembrane domain targeting peptide” (Oncotarget, 2016).

Entries after “also recorded” stand apart in the source; their conditions may differ.

The subject of test [1] is PlexA1 TMD. The test is described as follows: bacterial two-hybrid (BACTH) assay of TMD interactions with PlexA1 TMD. The test is classed as binding. The conditions noted are these: Zip sequence positive control, Empty negative control. From the text:
To further explore the TMD interactions of PlexA1 we used a bacterial two-hybrid system for a more systematic analysis of TMD interactions. TMD sequences of PlexA1 and various potential interacting partners including NRP1 and all other members of the Plexin-A family were co-expressed in the bacteria to define the hierarchy of the interactions.
(§1) “Zip sequence” is the positive control of dimerization and “Empty” is the negative control of this bacterial system. (C, D) SPR assay (Biacore) to quantify MTP-PlexA1 interactions with PLexA1, NRP1 and VEGFR2 TMDs. (E) Proximity ligation assay showing that MTP-PlexA1 (10^−7 M) decreases the number of PLexA1-NRP1 interactions (green dots) in U373MG cells (scale bar = 20 μm).

Test [2] has as its system NRP1. The conditions noted are these: cited from earlier work. The source says: Glioblastoma (GBM) is a devastating disease with poor prognosis. Highly infiltrative and vascularized, these tumors are composed of multi-clonal cell types with various migratory and proliferative properties, and are genetically very heterogeneous. This obvious cellular heterogeneity largely accounts for the observed resistance to all available therapeutic strategies including, surgery, radiotherapy and chemotherapy. Significant recent progress in targeted therapy comprises blocking various receptor tyrosine kinases (RTK) or inhibiting angiogenesis. However, the clinica ...

Test [3] has as its system NRP1/PlexA1 complexes. Briefly: in situ proximity ligation assay (Duo-link), NRP1/PlexA1 complexes in U373MG cells. It is filed as cell-based, human. Particulars: specificity control, MTP-Neu at 10–6 M. On the procedure: as §1
Additional specificity controls were performed using a mutated version of MTP-PlexA1 (in which 3 glycines of the GxxxGxxxG motif were replaced by 3 valines or MTP-Neu, an anti-breast cancer peptide known to not interact with PlexA1) as described in Supplementary Figure S2. […] Similar results were obtained when cells were exposed to VEGF (39.4% NRP1 and 35.4% PlexA4, Figure 4B).
Supplementary Figure S2: Specificity controls were performed using a mutated version of MTP-PlexA1 […]
LVIVAVLIAYKRK). Such mutations have been previously shown to be sufficient to lose activity of NRP1 antagonist membrane domain targeting peptide (Roth et al., 2008 Mol Biol Cell). We also used MTP-Neu, a transmembrane domain targeting peptide known to […]
M, a concentration previously shown to produce maximal antagonist activity of the peptide. Additionally, we also repeated the in vitro angiogenic assay on matrigel using HUVEC cells. […]
to MTP-PlexA1. These experiments confirmed the specificity of MTP-PlexA1.
(§2) (1 picture or pasted object on this page, not shown here)

Test [4] relates to HUVEC cells. The test is described as follows: pseudo-tube formation assay, HUVEC on matrigel. The conditions noted are these: specificity control. It is filed as cell-based, human. From the text:
We observed PlexA1 positive blood vessels in the tissue array of GBM samples (Figure 5A). […] To address this possibility we first used a transgenic zebra-fish model tg(kdrl:eGFP) highlighting the endothelial cells. This allowed us to assess the angiogenic activities in vivo by analyzing formation of intersegmental vessels (ISVs) after morpholino-based knockdown of the target.
Figure 5 MTP-PlexA1 inhibits developmental and tumor-specific PlexA1 pro-angiogenic role (A) Microphotographs illustrating the expression of PlexA1 in vascular-like structures in human glioma tissues. (Scale bar: 40 μm). (B) Morpholino-based PlexA1 knockdown in Zebrafish tg(kdrl:eGFP) line. Representative images of control, Plexin-A1 mismatch and Pexin-A1 knockdown embryos (plxna1MO) are shown 28 hours post fertilization (28hpf). […] (E) Live-monitoring of VEGF-induced HUVEC cell migration assay using the XCelligence system (transwell assay). (F) Microphotographs illustrating the expression of PlexA1 in blood vessels of the chick chorioallontoic membrane (upper left picture). Microphotographs (middle and lower left pictures) and camera lucida drawing (middle and lower right pictures) showing representative fields of observation after 24 h incubation with VEGF (100 ng/ml, +vehicle) or VEGF + MTP-PlexA1 (10^−7 M). The number of VEGF-induced new blood vessels is shown in the graph. […]

The subject of test [5] is U373MG cells. Briefly: 3D migration assay, U373MG spheroids in plasma clot. The test is classed as cell-based, human. The conditions noted are these: U373MG, 100 ng/ml, 24 h plasma clot. On the procedure:
Supplementary Figure S6: The anti-tumor effect of MTP-PlxA1 was verified in U373MG human GBM line. We found […]
Because PlexA1 is involved in cell migration we also performed a 3D migration assay. U373MG cells were grown as cell aggregates (micro tumor-like spheroids) for 24 h in plasma clot with or without VEGF. […]
migration that formed cell chains invading the 3D substrate as previously described (12). Strikingly, VEGF-induced cell migration was abolished when MTP-PlexA1 at 10–7 M was added to the cultures. […]
of PlexA1, this part of the study exemplified the therapeutic potential of MTP-PlexA1 because this peptide was able to block two major mechanisms of tumor progression.
(Stable Disease) and 62.5% PR (Partial Response).
as §2

Test [6] relates to p-Akt/Akt. The test is described as follows: western blot of Akt phosphorylation in U373MG cells. The test is classed as cell-based, human. Particulars: p-Akt/Akt ratio, western blot, Sema3A 100 ng/ml. On the procedure: (C) Rac-1 activation assay in resting condition and after Sema3A-induced Rac-1 activation in U373 MG cells. (D) Western blot analysis of phosphorylated Akt, total Akt and tubulin in U373MG cells treated with the vehicle (LDS 72 μM), Sema3A (100 ng/ml) or Sema3A + MTP-PlexA1 (10^−7 M). The lower panel is showing the quantification of the p-Akt/Akt ratio in the different conditions. (E) MTP-PlexA1 decreases VEGFR-2 phosphorylation induced by VEGF (100 ng/ml) in HUVEC cells. […]
in 20 mM sodium acetate (pH 4.5) at a flow rate of 5 μl/ min 10–7 M of MTP-PlexA1 or Vehicle (LDS, 72 µM) during until desired surface densities, measured in response 1 h. Stimulation was done with 100ng/ml Semaphorin 3A units, were reached. […] First antibodies (Rabbit anti-phospho-the elution buffer containing detergent removed non- akt, Rabbit anti-akt, Cell Signaling #4060 and #9272 biotinylated peptides rendering the chip ready for analysis respectively) and mouse anti-tubulin α (Cell Signaling with monomeric biot-MTP-PlexA1. Blank surfaces were #2144) were incubated overnight at 4°C (+ anti-NRP1, used for background corrections. Injections of 30 µl anti-PlexA4 Abcam). […] Images of the immuno-blots cells per well in a 6-well plate and serum starved overnight. were acquired and analyzed thanks to the GENE GNOME Before protein extraction, the cells were treated either with apparatus (Syngene Bio Imaging, UK).
Background: Immunoblotting shows a protein as a band on a membrane.

As to “AAQVGLGVGTSLLALGVIIIVLMYRRK [Plexin-B1, TMD of Plexin B1 in BACTH assay]”, the “interaction with PlexA1 TMD” value in test [1] is recorded as “no significant interaction”. Same read-out and setting: the same measure for “IEITLIIFGVMAGVIGTILLISYGIRRK [GPA, TMD of GpA in BACTH assay]”: “no significant interaction”. The same measure, in the same setting: the same measure for “IIILVGTAVIAMFFWLLLVIILRTVKRK [VEGFR-2, TMD of VEGFR-2 in BACTH assay]”: “no significant interaction”; for “IIPIVAGVVAGIVLIGLALLLIWKLLKR [Integrin Beta-1, TMD of Integrin β-1 in BACTH assay]”: “no significant interaction”. In the case of “ILITIIAMSALGVLLGAVCGVVLYRKR [MTP-NRP1, synthetic peptide mimicking the TMD of NRP1]”, in test [2], the NRP1 dimerization antagonism result is “potent inhibitor by antagonizing dimerization” and the brain tumor growth result is “reducing brain tumor growth”. Further, the “tumor cell migration and angiogenesis” value in test [2] (in vitro and in vivo) is “impaired tumor cell migration and angiogenesis”. In the case of “ILITIIAMSALGVLLGAVCGVVLYRKR [NRP1, TMD of Neuropilin-1 in BACTH assay]”, in test [1], the “interaction with PlexA1 TMD” value was “significant interaction”.

With “ISIISAVVGILLVVVLGVVFGILIKRR [HER2, TMD of HER2 in BACTH assay]”, in test [1], the “interaction with PlexA1 TMD” value is given as “no significant interaction”.

With “NFTGLIAGVVSISTALLLLLGFFLWLKKR [cMET, TMD of c-Met in BACTH assay]”, in test [1], the “interaction with PlexA1 TMD” value is reported as “no significant interaction”. Consider “NLELITLCTCVAATLFWLLLTLFIRKK [VEGFR-1, TMD of VEGFR-1 in BACTH assay]”, for which, in test [1], the “interaction with PlexA1 TMD” value was “no significant interaction”. Still for that read-out and setting: the same measure for “SLPAIVSIAVAGGLLIIFIVAVLIAYKRK [Plexin-A4, TMD of Plexin A4 in BACTH assay]”: “positive interactions”; for “SMEIVILVGTGVIAVFFWVLLLLIFCNRRK [VEGFR-3, TMD of VEGFR-3 in BACTH assay]”: “no significant interaction”. The same measure, in the same setting: the same measure for “TLPAIVGIGGGGGLLLLVIVAVLIAYKRK [PlexA1, TMD of Plexin A1 in BACTH assay]”: “homo-dimerization capacity”. For “TLPAIVSIAAGGSLLLIIVIIVLIAYKRK [Plexin-A2, TMD of Plexin A2 in BACTH assay]”, the “interaction with PlexA1 TMD” value in test [1] is listed as “weaker interactions”.

Consider “TLPAIVVIGGVGVLLLLVIVAVLIAYKRK [MTP-PlexA1mut]”, for which the “disruption of NRP1/PlexA1 dimers” value in test [3] is “not by mutated MTP-PlexA1mut peptide”. For the same molecule, the “effect on number of tube-like structures (HUVEC on matrigel)” value in test [4] is listed as “not able to decrease tube like structure; also recorded: not able to reduce the number of tube-like structures”.

In the case of “TLPAMMGLAAGGGLLLLAITAVLVAYKRK [Plexin-A3, TMD of Plexin A3 in BACTH assay]”, in test [1], the “interaction with PlexA1 TMD” value is “weaker interactions”. In the case of VEGF [reference compound], the “tumor cell migration induced by VEGF” value in test [5] is on record as “induced tumor cell”.

B1: Sema3A: PlexA1 ligand (protein, UniProt Q14563 21-771, looked up)
Semaphorin-3A: NYQNGKNNVPRLKLSYKEMLESNNVITFNGLANSSSYHTFLLDEERSRLYVGAKDHIFSFDLVNIKDFQKIVWPVSYTRRDECKWAGKDILKECANFIKVLKAYNQTHLYACGTGAFHPICTYIEIGHHPEDNIFKLENSHFENGRGKSPYDPKLLTASLLIDGELYSGTAADFMGRDFAIFRTLGHHHPIRTEQHDSRWLNDPKFISAHLISESDNPEDDKVYFFFRENAIDGEHSGKATHARIGQICKNDFGGHRSLVNKWTTFLKARLICSVPGPNGIDTHFDELQDVFLMNFKDPKNPVVYGVFTTSSNIFKGSAVCMYSMSDVRRVFLGPYAHRDGPNYQWVPYQGRVPYPRPGTCPSKTFGGFDSTKDLPDDVITFARSHPAMYNPVFPMNNRPIVIKTDVNYQFTQIVVDRVDAEDGQYDVMFIGTDVGTVLKVVSIPKETWYDLEEVLLEEMTVFREPTAISAMELSTKQQQLYIGSTAGVAQLPLHRCDIYGKACAECCLARDPYCAWDGSACSRYFPTAKRRTRRQDIRNGDPLTHCSDLHHDNHHGHSPEERIIYGVENSSTFLECSPKSQRALVYWQFQRRNEERKEEIRVDDHIIRTDQGLLLRSLQQKDSGNYLCHAVEHGFIQTLLKVTLEVIDTEHLEELLHKDDDGDGSKTKEMSNSMTPSQKVWYRDFMQLINHPNLNTMDEFCEQVWKRDRKQRRQRPGHTPGNSNKWKHLQENKKGRNRRTHEFERAPRSV
Turning to B1, the “change of Akt phosphorylation” value in test [6] is −33%.
